Our source for the T/C values is PubChem BioAssay AID330 (DTP/NCI, 2004).

The subject of this assay is P388 leukemia ip, CD2F1 mice, survival T/C. Briefly: NCI In Vivo Anticancer Drug Screen. Data for tumor model P388 Leukemia (intraperitoneal) in CD2F1 (CDF1) mice. Conditions: endpoint: median survival time, higher = longer survival. In a few lines:
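Mice carrying the transplanted tumor received test compound or vehicle. Survival was recorded in each group, and the value is the treated-group measurement divided by that of the vehicle-treated control group.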

The mark [1] stands for this setting: dose: 50.0 mg/kg/injection, schedule: Q01DX005 (ip), vehicle: Klucel (hydroxypropylcellulose) (HPC).
[2] abbreviates: dose: 100.0 mg/kg/injection, schedule: Q01DX005 (ip), vehicle: Klucel (hydroxypropylcellulose) (HPC).
Where [3] appears, read: dose: 200.0 mg/kg/injection, schedule: Q01DX005 (ip), vehicle: Klucel (hydroxypropylcellulose) (HPC).
[4] abbreviates: dose: 100.0 mg/kg/injection, schedule: Q04DX003 (ip), vehicle: saline.
Where [5] appears, read: dose: 200.0 mg/kg/injection, schedule: Q04DX003 (ip), vehicle: saline.
Setting [6] is: dose: 25.0 mg/kg/injection, schedule: Q01DX009 (ip), vehicle: saline with Tween-80.
Where [7] appears, read: dose: 50.0 mg/kg/injection, schedule: Q01DX009 (ip), vehicle: saline with Tween-80.
[8] abbreviates: dose: 100.0 mg/kg/injection, schedule: Q01DX009 (ip), vehicle: saline with Tween-80.
Setting [9] is: dose: 50.0 mg/kg/injection, schedule: Q01DX009 (ip), vehicle: Klucel (hydroxypropylcellulose) (HPC).
Where [10] appears, read: dose: 100.0 mg/kg/injection, schedule: Q01DX009 (ip), vehicle: Klucel (hydroxypropylcellulose) (HPC).
[11] abbreviates: dose: 200.0 mg/kg/injection, schedule: Q01DX009 (ip), vehicle: Klucel (hydroxypropylcellulose) (HPC).

Values joined by “and” are separate entries in the source; they are usually repeats but may differ in a detail not shown here. Identical values can stand only once. Toxic doses and inconclusive results are not listed.

For the compound `COC1=C(OC)S[C@H]2C3CC([C@H]2S1)[C@@H]1SC(OC)=C(OC)S[C@H]31`, the T/C by setting is: under setting [1], 97 % of control; under setting [2], 97 % of control; under setting [3], 98 % of control.
`COc1cccc2c1C(=O)c1c(O)c3c(c(O)c1C2=O)C[C@@](O)(C(=O)CSc1nnc(C)s1)C[C@@H]3OC1CC(N)C(O)C(C)O1` (stereo partly drawn): the T/C (dose: 6.25 mg/kg/injection, schedule: Q01DX009 (ip), vehicle: water) is 154 % of control; the T/C (dose: 12.5 mg/kg/injection, schedule: Q01DX009 (ip), vehicle: water) is 155 % of control and 158 % of control.
With `O=C(O)CCCC(=O)NC1CC2c3ccccc3C1c1ccccc12` (stereo not drawn), the T/C is, setting by setting: (dose: 75.0 mg/kg/injection, schedule: Q01DX009 (ip), vehicle: saline with Tween-80) 100 % of control; (dose: 100.0 mg/kg/injection, schedule: Q04DX003 (ip), vehicle: saline sonified) 100 % of control; (dose: 150.0 mg/kg/injection, schedule: Q01DX009 (ip), vehicle: saline with Tween-80) 100 % of control; (dose: 200.0 mg/kg/injection, schedule: Q04DX003 (ip), vehicle: saline sonified) 105 % of control; (dose: 400.0 mg/kg/injection, schedule: Q04DX003 (ip), vehicle: saline sonified) 100 % of control.
On to `OCC1COC(c2ccccc2)=N1` (stereo not drawn), for which the T/C was 100 % of control under setting [1], 99 % of control under setting [2] and 100 % of control under setting [3].
`CCOc1c(N=Nc2ccc(Cl)cc2Cl)c(C)nn1C(=S)S`: the T/C (dose: 60.0 mg/kg/injection, schedule: Q01DX005 (ip), vehicle: Klucel + Tween-80) is 90 % of control; the T/C (dose: 120.0 mg/kg/injection, schedule: Q01DX005 (ip), vehicle: Klucel + Tween-80) was 103 % of control; the T/C (dose: 240.0 mg/kg/injection, schedule: Q01DX005 (ip), vehicle: Klucel + Tween-80) was 100 % of control.
As to `Nc1ccc2c(c1)CC1CC(=O)NN=C21` (stereo not drawn), the T/C was 98 % of control (dose: 60.0 mg/kg/injection, schedule: Q01DX005 (ip), vehicle: saline); 92 % of control (dose: 120.0 mg/kg/injection, schedule: Q01DX005 (ip), vehicle: saline); 98 % of control (dose: 240.0 mg/kg/injection, schedule: Q01DX005 (ip), vehicle: saline).
Take `CCN(CC)CCCC(C)Nc1c2ccc(Cl)cc2nc2ccc(OC)cc12` (stereo not drawn): the T/C is 108 % of control (dose: 3.0 mg/kg/injection, schedule: Q03HX024 (ip), vehicle: saline with Tween-80); 104 % of control (dose: 4.0 mg/kg/injection, schedule: Q01DX009 (ip), vehicle: suspension in saline); 97 % of control (dose: 4.0 mg/kg/injection, schedule: Q#A X018 (ip), vehicle: saline with Tween-80); 93 % of control (dose: 6.0 mg/kg/injection, schedule: Q03HX024 (ip), vehicle: saline with Tween-80); 104 % of control and 105 % of control (dose: 8.0 mg/kg/injection, schedule: Q01DX009 (ip), vehicle: saline with Tween-80); 110 % of control (dose: 8.0 mg/kg/injection, schedule: Q01DX009 (ip), vehicle: suspension in saline). Besides, the T/C reads like this: (dose: 8.0 mg/kg/injection, schedule: Q#A X018 (ip), vehicle: saline with Tween-80) 87 % of control; (dose: 16.0 mg/kg/injection, schedule: Q01DX009 (ip), vehicle: saline with Tween-80) 106 % of control and 120 % of control; (dose: 16.0 mg/kg/injection, schedule: Q01DX009 (ip), vehicle: suspension in saline) 108 % of control; (dose: 16.0 mg/kg/injection, schedule: Q#A X018 (ip), vehicle: saline with Tween-80) 91 % of control; (dose: 20.0 mg/kg/injection, schedule: Q04DX003 (ip), vehicle: saline with Tween-80) 100 % of control; (dose: 24.0 mg/kg/injection, schedule: Q03HX024 (ip), vehicle: saline with Tween-80) 108 % of control. In addition, the T/C was 97 % of control (dose: 24.0 mg/kg/injection, schedule: Q04DX003 (ip), vehicle: saline with Tween-80); 117 % of control (dose: 32.0 mg/kg/injection, schedule: Q01DX009 (ip), vehicle: saline with Tween-80); 113 % of control (dose: 32.0 mg/kg/injection, schedule: Q01DX009 (ip), vehicle: suspension in saline); 104 % of control (dose: 32.0 mg/kg/injection, schedule: Q#A X018 (ip), vehicle: saline with Tween-80); 100 % of control (dose: 40.0 mg/kg/injection, schedule: Q04DX003 (ip), vehicle: saline with Tween-80); 97 % of control (dose: 48.0 mg/kg/injection, schedule: Q04DX003 (ip), vehicle: saline with Tween-80). The T/C by setting is: (dose: 64.0 mg/kg/injection, schedule: Q01DX009 (ip), vehicle: suspension in saline) 113 % of control; (dose: 71.0 mg/kg/injection, schedule: Q01DX001 (ip), vehicle: saline with Tween-80) 106 % of control; (dose: 80.0 mg/kg/injection, schedule: Q04DX003 (ip), vehicle: saline with Tween-80) 108 % of control; (dose: 96.0 mg/kg/injection, schedule: Q04DX003 (ip), vehicle: saline with Tween-80) 106 % of control; (dose: 128.0 mg/kg/injection, schedule: Q01DX009 (ip), vehicle: saline with Tween-80) 98 % of control; (dose: 128.0 mg/kg/injection, schedule: Q01DX009 (ip), vehicle: suspension in saline) 91 % of control. Further, the T/C (dose: 143.0 mg/kg/injection, schedule: Q01DX001 (ip), vehicle: saline with Tween-80) is 113 % of control.
Consider `CC(=O)CC(c1ccccc1)C(C(=O)O)c1ccccc1` (stereo not drawn), for which the T/C under setting [4] was 93 % of control; the T/C under setting [5] was 100 % of control; the T/C (dose: 400.0 mg/kg/injection, schedule: Q04DX003 (ip), vehicle: saline) is 100 % of control.
For `C=CCC(CCC)(C(=O)Nc1ccc2nc(C)cc(N)c2c1)C(=O)Nc1ccc2nc(C)cc(N)c2c1`, the T/C by setting is: (dose: 50.0 mg/kg/injection, schedule: Q01DX005 (ip), vehicle: saline with Tween-80) 100 % of control; (dose: 100.0 mg/kg/injection, schedule: Q01DX005 (ip), vehicle: saline with Tween-80) 93 % of control.
Regarding `O=C1C(Br)=Cc2cccc3cccc1c23`, the T/C is 100 % of control under setting [6], 100 % of control under setting [7] and 100 % of control under setting [8].
Take `CC12CCC3C(CCC4CC(O)CCC43C)C1CC(C1(O)C(=O)Nc3ccccc31)C2=O` (stereo not drawn): the T/C under setting [6] is 94 % of control, the T/C under setting [7] is 88 % of control and the T/C under setting [8] is 94 % of control.
Regarding `N#Cc1nc(CC(=O)c2ccccc2Cl)c(CC(=O)c2ccccc2Cl)nc1C#N`, the T/C is 100 % of control (dose: 60.0 mg/kg/injection, schedule: Q01DX005 (ip), vehicle: saline with Tween-80); 94 % of control (dose: 120.0 mg/kg/injection, schedule: Q01DX005 (ip), vehicle: saline with Tween-80); 114 % of control (dose: 240.0 mg/kg/injection, schedule: Q01DX005 (ip), vehicle: saline with Tween-80).
Turning to `S=C1NC2(CCCCC2)NC12CCCCC2`, the T/C is 86 % of control under setting [9]; 93 % of control under setting [10]; 98 % of control under setting [11]; 93 % of control (dose: 400.0 mg/kg/injection, schedule: Q01DX009 (ip), vehicle: Klucel (hydroxypropylcellulose) (HPC)).
For the compound `CC1(C)OOC(C)(O)C1Br` (stereo not drawn), the T/C was 95 % of control (dose: 50.0 mg/kg/injection, schedule: Q04DX003 (ip), vehicle: saline); 103 % of control under setting [4]; 95 % of control under setting [5].
For `COc1cc(C2Oc3c(OC)cc(/C=C/C(=O)NCCc4ccc(O)cc4)cc3C2C(=O)NCCc2ccc(O)cc2)ccc1O` (stereo not drawn), the T/C runs as follows: (dose: 1.88 mg/kg/injection, schedule: Q01DX005 (ip), vehicle: Klucel (hydroxypropylcellulose) (HPC)) 96 % of control; (dose: 3.75 mg/kg/injection, schedule: Q01DX005 (ip), vehicle: Klucel (hydroxypropylcellulose) (HPC)) 94 % of control; (dose: 7.5 mg/kg/injection, schedule: Q01DX005 (ip), vehicle: Klucel (hydroxypropylcellulose) (HPC)) 99 % of control; (dose: 15.0 mg/kg/injection, schedule: Q01DX005 (ip), vehicle: Klucel (hydroxypropylcellulose) (HPC)) 101 % of control.
Regarding `CNC(=O)Nc1ccccc1C(=O)NN`, the T/C (dose: 25.0 mg/kg/injection, schedule: Q01DX009 (ip), vehicle: Klucel (hydroxypropylcellulose) (HPC)) was 100 % of control; the T/C under setting [9] is 109 % of control; the T/C under setting [10] was 105 % of control; the T/C under setting [11] was 96 % of control.
